Experimental data: paper PMC8537458, “Anti-Inflammatory Azaphilones from the Edible Alga-Derived Fungus Penicillium sclerotiorum” (Marine Drugs, 2021)
Entries after “also recorded” stand apart in the source; their conditions may differ.

Legend:
Type in all cases: cell-based
[1] = MTT cytotoxicity assay, summary over the cell panel; settings: human; general density of 1 × 10^4/96-well; most cells / various cancer cells
Method: (§1) The cell lines A549, MCF-7, MDA-MB-231, SH-SY5Y, and WI-38 were purchased from Bioresource Collection and Research Centre (BCRC; Taiwan). […] Chin-Chung Wu (Kaohsiung Medical University, Taiwan), and HCT15 and HCT116 cells were given by Prof. Chen-Yang Shen (Academia Sinica, Taiwan). 1 × 10^3 or 1 × 10^4 cells were seeded in a 96-well one day before compounds treatment.

[2] = test system: SMAD responsive element luciferase reporter in HEK293A cells; test: SMAD transcriptional activity reporter assay; settings: 20 ng/mL TGF-β, 24 h
Method: (§2) Reporter plasmids (Promega, Madison, WI, USA) with luciferase driven by NFκB or SMAD responsive elements were stably established in HEK293A cells and maintained by a puromycin-containing culture medium. Chemiluminescence levels represent the luciferase expression was determined by the ONE-Glo reagent (Promega, USA). The fold change of each group to the DMSO vehicle control group was calculated.
(§3) Statistical analysis was conducted via a one-tailed unpaired t-test in comparison compound treating group with the group only treated with TNF-α or TGF-β by Microsoft Excel software. The significance was annotated on plots of the result, * for p < 0.05, ** for p < 0.01, and *** for p < 0.001.

[3] = test system: phospho-Smad 2(S465/467)/Smad 3(S423/425); test: TGF-β-induced Smad2/3 phosphorylation by immunoblotting; settings: 20 ng/mL TGF-β, 30 min, CCD966SK fibroblasts, n = 3
Method: (§4) THP-1 monocyte cell line that was gifted from Prof. Tsung-Hsien Chang (National Defense Medical Center, Taiwan) was used to examine for TNF-α-induced NFκB phosphorylation; CCD966SK fibroblast cell line that purchased from Bioresource Collection and Research Centre (BCRC; Taiwan) was used to examine for TGF-β-induced Smad2/3 phosphorylation. The procedure of protein preparation, separation, blotting, and detection was conducted referred to previously. The primary antibodies against phospho-NFκB p65(S536), NFκB p65, phospho-Smad 2(S465/467)/Smad 3(S423/425), and Smad 2/3 were purchased from Cell Signaling (USA). The level of Gapdh expression served as an internal control for protein loading. The annotated number represents the quantified level from normalized by both NFκB p65/Smad 2/3 and Gapdh and calculated the fold change phospho-NFκB or phospho-Smad 2/3 to their DMSO vehicle control group by ImageJ software. IκB/IKK inhibitor BAY 11-7082 (Cayman) and TGFβRI inhibitor LY3200882 (Medchemexpres) as positive controls.
as §3

phospho-NFκB p65(S536) = test: TNF-α-induced NFκB phosphorylation by immunoblotting; settings: 20 ng/mL TNF-α, 30 min, THP-1 cells, n = 3
Method: as §4, §3

[4] = test system: NFκB responsive element luciferase reporter in HEK293A cells; test: NFκB transcriptional activity reporter assay; settings: 20 ng/mL TNF-α, 24 h, n = 6
Method: as §2, §3

MTT cytotoxicity assay = settings: human, SH-SY5Y neuroblastoma cells
Method: as §1

SH-SY5Y = test: MTT cytotoxicity assay; settings: among seven cancer and one fibroblast cell lines
Method: as §1

CC[C@H](C)/C=C(C)/C=C/C1=CC2=C(Cl)C(=O)[C@](C)(OC(C)=O)C(=O)C2=CO1 [Compound 6, sclerotiorin]
IC50 at 48 h [1]: > 100 µM
TGF-β-stimulated SMAD transcriptional activity ([2]; 20 μM compound, n = 6): inhibited; also recorded: decreased
TGF-β-induced Smad2/3 phosphorylation ([3]; 20 μM compound): inhibited

CCC(C)C(O)C(C)(O)C=CC1=CC2=C(Cl)C(=O)C(C)(O)C(OC(C)=O)C2CO1 (stereo not drawn) [Compound 1, 8a-epi-hypocrellone A]
IC50 at 48 h [1]: > 100 µM
TNF-α-induced NFκB phosphorylation (phospho-NFκB p65(S536); 20 μM compound): inhibit; also recorded: significantly reduce
NFκB transcriptional activity by reporter assay ([4]; 20 μM compound): did not change; also recorded: remains
TGF-β-stimulated SMAD transcriptional activity ([2]; 20 μM compound, n = 6): increased
IC50 at 48 h (MTT cytotoxicity assay; general density 1 × 10^4/96-well (Table 2)): 35.6 µM
IC50 at 48 h (MTT cytotoxicity assay; very low density 1 × 10^3/96-well (Table 3)): 26.8 µM
selective toxicity toward SH-SY5Y (SH-SY5Y): selective toxicity

CC[C@H](C)/C=C(C)/C=C/C1=CC2=C(Cl)C(=O)[C@](C)(O)[C@H](OC(C)=O)[C@H]2CO1 [Compound 7, isochromophilone IV]
IC50 at 48 h [1]: > 100 µM
TNF-α-induced NFκB phosphorylation (phospho-NFκB p65(S536); 20 μM compound): inhibit; also recorded: significantly reduce
NFκB transcriptional activity by reporter assay ([4]; 20 μM compound): did not change; also recorded: remains

CCC(C)C(O)C(C)(O)C=CC1=CC2=C(Cl)C(=O)C(C)(O)C(OC(C)=O)C2CO1 (stereo not drawn) [Compound 2, 8a-epi-eupenicilazaphilone C]
TGF-β-stimulated SMAD transcriptional activity ([2]; 20 μM compound, n = 6): promote; also recorded: increased
TGF-β-induced Smad2/3 phosphorylation ([3]; 20 μM compound): significantly increase; also recorded: promote

CC[C@H](C)[C@@H](O)[C@@](C)(O)/C=C/C1=CC2=C(Cl)C(=O)[C@](C)(O)[C@H](OC(C)=O)[C@H]2CO1 [Compound 4, eupenicilazaphilone C]
IC50 at 48 h [1]: > 100 µM
TGF-β-stimulated SMAD transcriptional activity ([2]; 20 μM compound, n = 6): increased

CC[C@H](C)[C@@H](O)[C@](C)(O)/C=C/C1=CC2=C(Cl)C(=O)[C@](C)(O)[C@H](OC(C)=O)[C@H]2CO1 [Compound 3, hypocrellone A]
IC50 at 48 h [1]: > 100 µM
TNF-α-induced NFκB phosphorylation (phospho-NFκB p65(S536); 20 μM compound): inhibit; also recorded: significantly reduce
NFκB transcriptional activity by reporter assay ([4]; 20 μM compound): did not change; also recorded: remains
TGF-β-induced Smad2/3 phosphorylation ([3]; 20 μM compound): decrease

Cc1ccc(S(=O)(=O)/C=C/C#N)cc1 [BAY 11-7082, reference compound]
TNF-α-induced NFκB phosphorylation (phospho-NFκB p65(S536); 10 μM positive control): significantly reduce
NFκB transcriptional activity by reporter assay ([4]; 10 μM positive control): alter

CC(C)(O)c1cc(Nc2cc(Oc3cn(C4CC4)nc3C3CCOCC3)ccn2)ccn1 [LY3200882, reference compound]
TGF-β-stimulated SMAD transcriptional activity ([2]; 1 μM positive control, n = 6, listed as TGFβRI inhibitor): decreased
TGF-β-induced Smad2/3 phosphorylation ([3]; 1 μM positive control, listed as TGFβRI inhibitor): trend toward a decrease

COc1cccc2c1C(=O)c1c(O)c3c(c(O)c1C2=O)C[C@@](O)(C(=O)CO)C[C@@H]3O[C@H]1C[C@H](N)[C@H](O)[C@H](C)O1 [doxorubicin, reference compound]
IC50 at 48 h [1]: 0.36 to 3.7 µM

CC[C@H](C)/C=C(C)/C=C/c1cc(O)c(C)c(O)c1C=O [Compound 5, ((1E,3E)-3,5-dimethylhepta-1,3-dien-1-yl)-2,4-dihydroxy-3-methylbenzaldehyde]
IC50 at 48 h [1]: > 100 µM
